In US20140004062A1, “COMPOSITION INCLUDING 3-BROMO-4,5-DIHYDROXYBENZALDEHYDE COMPOUND AS EFFECTIVE COMPONENT FOR PROTECTING AND TREATING SKIN CELL AGANIST ULTRAVIOLET” (Jeju National University Industry-Academic Cooperation …, priority 2012, published 2014):
Each block holds one compound with its values, some of them ahead of it.

What was measured:
[1] = tested on: HaCaT cells; assay: MTT assay, viability of HaCaT cells treated with BDB; assay type: cell-based, human; conditions: up to the concentration of 30 μM; tested at 10-50 μM
Method: (§1) Human keratinocytes (HaCaT cells) were obtained from the Amore Pacific Company (Gyeonggi-do, Republic of Korea). Cells were maintained at 37° C. in an incubator with a humidified atmosphere of 5% CO2. Cells were cultured in Dulbecco's modified Eagle's medium containing 10% heat-inactivated fetal calf serum, streptomycin (100 μg/mL) and penicillin (100 unit/mL).
(§2) The effect of BDB on the viability of HaCaT cells was assessed as follows. Cells were seeded in a 96-well plate at a density of 1×10^5 cells/mL. Sixteen hours after plating, BDB was added at a concentration of at 10, 20, 30, 40, and 50 μM. To evaluate the ability of BDB to protect keratinocytes against UVB-exposure, BDB was added at a concentration of 10, and 30 μM, and cells were exposed to UVB radiation one hour later and incubated at 37° C. for 24 h. Fifty microliter of MTT stock solution (2 mg/mL) was added to each well to yield a total reaction volume of 200 μl. After incubating the cells for 4 h, the plate was centrifuged at 800×g for 5 min, and the supernatants were aspirated. The formazan crystals in each well were dissolved in dimethylsulfoxide (150 μl), and the absorbance at 540 nm was read on a scanning multi-well spectrophotometer.

[2] = tested on: HaCaT cells; assay: MTT assay, viability of UVB-exposed HaCaT cells; assay type: cell-based; conditions: Homo sapiens, light or radiation study, UVB 1 h later, 24 h, untreated UVB cells 65%, read-out: viability of the cell exposed to UVB
Method: as §1, §2

[3] = DPPH radical removal ability; assay type: physicochemical; conditions: 3 h
Method: BDB at a concentration of 10, 20, 30 μM and 2 mM NAC were added to a 1×10^−4 M solution of DPPH in methanol. The resulting reaction mixture was shaken vigorously. After 3 h, the amount of unreacted DPPH was measured at 520 nm using a spectrophotometer.

[4] = tested on: HaCaT keratinocytes; assay: Intracellular ROS induced by H2O2, DCF-DA method; assay type: cell-based, human; conditions: H2O2 1 mM
Method: (§3) The DCF-DA method was used to detect intracellular ROS levels in HaCaT keratinocytes generated by either H2O2 or UVB radiation. For the detection of ROS in H2O2-treated cells, cells were seeded at a density of 1.5×10^5 cells/well. Sixteen hours after plating, cells were treated with BDB at a concentration of 10, 20, 30 μM and 2 mM NAC. After 30 min, H2O2 (1 mM) was added to the plate. Cells were incubated for an additional 30 min at 37° C., and DCF-DA solution (25 μM) was then added. Ten minutes after the addition of DCF-DA, the fluorescence of 2′,7′-dichlorofluorescein (DCF) was detected and quantified using a PerkinElmer LS-5B spectrofluorometer (PerkinElmer, Waltham, Mass., USA). For the detection of ROS in UVB-exposed cells, cells were treated with BDB as above. After one hour, cells were exposed to UVB radiation at a dose of 30 mJ/cm^2. […] Cells were incubated for an additional 24 h at 37° C., DCF-DA solution (25 μM) was added and detected as above.

[5] = tested on: HaCaT keratinocytes; assay: Intracellular ROS induced by UVB, DCF-DA method; assay type: cell-based, human; conditions: UVB 30 mJ/cm^2, 24 h
Method: as §3

[6] = Detection of superoxide anion, xanthine/xanthine oxidase system, ESR spectrometry; assay type: physicochemical; conditions: BDB 30 μM; signal without BDB 2765
Method: The superoxide anion was produced via the xanthine/xanthine oxidase system and then reacted with a nitrone spin trap, DMPO. The DMPO/.OOH adducts were detected using a JES-FA electron spin resonance (ESR) spectrometer (JEOL, Tokyo, Japan). Briefly, ESR signaling was recorded 5 min after 20 μl of xanthine oxidase (0.25 U/mL) was mixed with 20 μl each of xanthine (5 mM), DMPO (1.5 M) and BDB (30 μM). The ESR spectrometer parameters were set at a magnetic field of 336 mT, power of 1.00 mW, frequency of 9.4380 GHz, modulation amplitude of 0.2 mT, gain of 500, scan time of 0.5 min, scan width of 10 mT, time constant of 0.03 sec, and temperature of 25° C.

[7] = Detection of hydroxyl radical, Fenton reaction, ESR spectrometry; assay type: physicochemical; conditions: BDB 30 μM; signal without BDB 3851
Method: The hydroxyl radical was generated by the Fenton reaction (H2O2+FeSO4) and then reacted with DMPO. The resultant DMPO/.OH adducts were detected using an ESR spectrometer. The ESR spectrum was recorded 2.5 min after a phosphate buffer solution (pH 7.4) was mixed with 0.2 mL each of 0.3 M DMPO, 10 mM FeSO4, 10 mM H2O2, and BDB (30 μM). The ESR spectrometer parameters were set at a magnetic field of 336 mT, power of 1.00 mW, frequency of 9.4380 GHz, modulation amplitude of 0.2 mT, gain of 200, scan time of 0.5 min, scan width of 10 mT, time constant of 0.03 sec, and temperature of 25° C.

[8] = UVB absorption analysis, ultraviolet/visible spectrophotometer; assay type: physicochemical
Method: To study the UVB absorption spectra of BDB, which was diluted in DMSO at a ratio 1:500 (v/v), it was scanned by UV at 200-500 nm using Biochrom Libra S22 ultraviolet/visible spectrophotometer.

[9] = tested on: HaCaT cells; assay: Lipid peroxidation, 8-isoprostane enzyme immunoassay; assay type: cell-based, human; conditions: UVB-exposed cells treated with BDB, 24 h; UVB alone 3.1 pg/mg
Method: (§4) A cell was exposed to UVB, and then after 24 hours, effects of BDB in inhibiting the cell membrane lipid peroxidation, a protein modification, and a cell DNA damage of UVB-irradiated cell was observed. Lipid peroxidation was assayed by the determination of 8-isoprostane levels in the culture medium. A commercial enzyme immunoassay (Cayman Chemical, Ann Arbor, Mich., USA) was employed according to the manufacturer's instructions. Lipid peroxidation was also estimated using a fluorescent probe, DPPP. Cells were incubated with 5 μM DPPP for 15 min in the dark and then exposed to UVB. DPPP fluorescence image was captured using a Zeiss Axiovert 200 inverted microscope at an excitation wavelength of 351 nm and an emission wavelength of 380 nm and quantified.

[10] = tested on: HaCaT cells; assay: Lipid peroxidation, DPPP fluorescent probe; assay type: cell-based, human; conditions: UVB-irradiated cells treated with BDB
Method: as §4

[11] = tested on: HaCaT cells; assay: Protein carbonyl formation ELISA; assay type: cell-based, human; conditions: UVB-irradiated cells treated with BDB
Method: The amount of carbonyl formation in protein was determined using an Oxiselect™ protein carbonyl ELISA kit purchased from Cell Biolabs (San Diego, Calif., USA) according to the manufacturer's instructions.

[12] = tested on: HaCaT cells; assay: Comet assay, oxidative DNA damage; assay type: cell-based, human; conditions: UVB-exposed cells treated with BDB; UVB alone 37%
Method: The degree of oxidative DNA damage was determined in a comet assay. Cell suspension was mixed with 75 μL of 0.5% low melting agarose (LMA) at 39° C. and the mixture was spread on a fully frosted microscopic slide pre-coated with 200 μL of 1% normal melting agarose (NMA). After solidification of the agarose, the slide was covered with another 75 μl of 0.5% LMA and then immersed in a lysis solution (2.5 M NaCl, 100 mM Na-EDTA, 10 mM Tris, 1% Trion X-100 and 10% DMSO, pH 10) for 1 h at 4° C. The slides were then placed in a gel-electrophoresis apparatus containing 300 mM NaOH and 10 mM Na-EDTA (pH 13) for 40 min to allow for DNA unwinding and the expression of the alkali-labile damage. An electrical field was then applied (300 mA, 25 V) for 20 min at 4° C. to draw the negatively charged DNA towards the anode. The slides were washed three times for 5 min at 4° C. in a neutralizing buffer (0.4 M Tris, pH 7.5), stained with 75 μL of propidium iodide (20 μg/mL) and observed using a fluorescence microscope and an image analyzer (Kinetic Imaging, Komet 5.5, UK). The percentage of total fluorescence in the DNA tails and the tail length of 50 cells per slide were recorded.

[13] = tested on: HaCaT cells; assay: Nuclear staining with Hoechst 33342, apoptotic bodies; assay type: cell-based, human; conditions: BDB 30 μM, UVB 1 h later, 24 h; UVB alone 16
Method: Cells were treated with BDB at a concentration of 30 μM and exposed to UVB radiation 1 h later. Cells were incubated for an additional 24 h at 37° C. Hoechst 33342 (1.5 μL of a 10 mg/mL stock), a DNA-specific fluorescent dye, was added to each well, and the cells were incubated for 10 min at 37° C. The stained cells were visualized under a fluorescence microscope equipped with a CoolSNAP-Pro color digital camera. The degree of nuclear condensation was evaluated, and the apoptotic cells were quantified.

[14] = tested on: HaCaT cells; assay: Sub-G1 hypodiploid cells, flow cytometry; assay type: cell-based, human; conditions: BDB 30 μM, UVB 1 h later, 24 h; UVB alone 17%, no UVB 1%
Method: Flow cytometry was performed in order to determine the apoptotic sub-G1 hypodiploid cells. Cells were treated with BDB at a concentration of 30 μM and exposed to UVB radiation 1 h later. Cells were incubated for an additional 24 h at 37° C. Cells were harvested, and fixed in 1 mL of 70% ethanol for 30 min at 4° C. Cells were washed twice with PBS, and then incubated for 30 min in the dark at 37° C. in 1 mL of PBS containing 100 μg propidium iodide and 100 μg RNase A. Flow cytometric analysis was performed using a FACS Calibur flow cytometer (Becton Dickinson, Mountain View, Calif., USA). Sub-G1 hypodiploid cells were assessed based on the histograms generated using the computer programs, Cell Quest and Mod-Fit.

[15] = tested on: HaCaT cells; assay: Cytoplasmic histone-associated DNA fragmentation kit; assay type: cell-based, human; conditions: UVB-irradiated cells treated with BDB
Method: Cellular DNA fragmentation was assessed by analyzing the extent of cytoplasmic histone-associated DNA fragmentation using a kit from Roche Diagnostics (Portland, Oreg., USA) according to the manufacturer's instructions. A cytoplasmic histone-associated DNA fragmentation was increased in UVB-irradiated cells as compared with control cells. The level of DNA fragmentation was decreased in UVB-irradiated cells that were treated with BDB (see FIG. 4c).

[16] = tested on: hematopoietic necrosis virus; conditions: cited from earlier work
[17] = tested on: infectious pancreatic necrosis virus; conditions: cited from earlier work
[18] = UV/visible scan 200 nm to 500 nm

superoxide anion signal (ESR, DMPO/.OOH adducts) [6]: 2063
absorption peak 1 position [8, 18]: 288 nm
absorption peak 2 position [8, 18]: 357 nm
SMILES: O=Cc1cc(O)c(O)c(Br)c1 [BDB, 3-Bromo-4,5-dihydroxybenzaldehyde]
toxicity on human HaCaT keratinocyte (cell viability, MTT) [1]: does not exhibit toxicity
viability at 10 µM ([2]; BDB 10 μM): 73%
viability at 20 µM ([2]; BDB 20 μM): 73%
viability at 30 µM ([2]; BDB 30 μM): 77%
DPPH radical scavenged ([3]; 10 μM, 1×10^−4 M DPPH in methanol): 6%
DPPH radical scavenged ([3]; 20 μM, 1×10^−4 M DPPH in methanol): 21%
DPPH radical scavenged ([3]; 30 μM, 1×10^−4 M DPPH in methanol): 25%
intracellular ROS induced by H2O2 removed ([4]; 10 μM): 64%
intracellular ROS induced by H2O2 removed ([4]; 20 μM): 67%
intracellular ROS induced by H2O2 removed ([4]; 30 μM): 70%
intracellular ROS induced by UVB removed ([5]; 10 μM): 17%
intracellular ROS induced by UVB removed ([5]; 20 μM): 22%
intracellular ROS induced by UVB removed ([5]; 30 μM): 23%
hydroxyl radical signal (ESR, DMPO/.OH adducts) [7]: 3002
UVB absorption ability ([8]; diluted in DMSO 1:500 (v/v), scanned at 200-500 nm): exhibited the absorption ability at 280 to 320 nm
8-isoprostane level (lipid peroxidation) [9]: 1.9 pg/mg
DPPP fluorescence (lipid peroxidation) [10]: exhibited the fluorescence in the more small range
carbonyl formation induced by UVB (protein carbonyl level) [11]: inhibited
ratio of DNA in the tail (comet assay) [12]: 18%
Apoptotic Index (nuclear segments, Hoechst 33342) [13]: 9
apoptotic sub-G1 DNA [14]: 8%
level of cytoplasmic histone-associated DNA fragmentation [15]: decreased
antiviral effect [16]: antiviral effect
antiviral effect [17]: antiviral effect

SMILES: CC(=O)N[C@@H](CS)C(=O)O [NAC, N-acetyl cysteine, reference compound]
DPPH radical scavenged ([3]; 2 mM, positive control): 89%
intracellular ROS induced by H2O2 removed ([4]; 2 mM): 80%
intracellular ROS induced by UVB removed ([5]; 2 mM): 22%
